Laboratory results reported in patent publication US20260365671A1, “HETEROCYCLIC COMPOUND” (Takeda Pharmaceutical Company Limited, priority 2022, published 2026).

Legend:
NLRP3 inflammasome = target: T1, NLRP3 inflammasome (Homo sapiens, UniProt Q96P20); test: IL-1β TR-FRET assay (THP-1 cells differentiated to macrophages with IFN-γ, LPS primed, ATP activated; HTRF); format: cell-based; settings: THP-1 macrophages, 50 ng/mL LPS priming, compound 30 min, 20 mM ATP 2 hours
T1 construct: IL-1beta HTRF
Procedure, shortened: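 THP-1 cells differentiated with 25 ng/mL IFN-γ for 24 h, primed with 50 ng/mL LPS in serum-free medium for 24 h, then treated with compounds for 30 min before 20 mM ATP activation for 2 h at 37 °C. Secreted IL-1β quantified by HTRF; IC50 from logistic fit of % inhibition.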

NF-κB pathway = test: TNF-α assay (THP-1 cells differentiated to macrophages with IFN-γ, NF-κB pathway activated with LPS; ELISA); format: cell-based, Human; settings: compound 30 min, 50 ng/mL LPS 3 hours
Procedure, shortened: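 THP-1 cells differentiated with 25 ng/mL IFN-γ for 24 h, then 30 min with compounds in serum-free medium. NF-κB activated with 50 ng/mL LPS, 3 h at 37 °C. Supernatant TNF-α by ELISA; IC50 from four-parameter logistic fit of % inhibition.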

[1] = Homo sapiens, THP-1, THP-1 macrophages

T1 sequence (Q96P20 whole entry): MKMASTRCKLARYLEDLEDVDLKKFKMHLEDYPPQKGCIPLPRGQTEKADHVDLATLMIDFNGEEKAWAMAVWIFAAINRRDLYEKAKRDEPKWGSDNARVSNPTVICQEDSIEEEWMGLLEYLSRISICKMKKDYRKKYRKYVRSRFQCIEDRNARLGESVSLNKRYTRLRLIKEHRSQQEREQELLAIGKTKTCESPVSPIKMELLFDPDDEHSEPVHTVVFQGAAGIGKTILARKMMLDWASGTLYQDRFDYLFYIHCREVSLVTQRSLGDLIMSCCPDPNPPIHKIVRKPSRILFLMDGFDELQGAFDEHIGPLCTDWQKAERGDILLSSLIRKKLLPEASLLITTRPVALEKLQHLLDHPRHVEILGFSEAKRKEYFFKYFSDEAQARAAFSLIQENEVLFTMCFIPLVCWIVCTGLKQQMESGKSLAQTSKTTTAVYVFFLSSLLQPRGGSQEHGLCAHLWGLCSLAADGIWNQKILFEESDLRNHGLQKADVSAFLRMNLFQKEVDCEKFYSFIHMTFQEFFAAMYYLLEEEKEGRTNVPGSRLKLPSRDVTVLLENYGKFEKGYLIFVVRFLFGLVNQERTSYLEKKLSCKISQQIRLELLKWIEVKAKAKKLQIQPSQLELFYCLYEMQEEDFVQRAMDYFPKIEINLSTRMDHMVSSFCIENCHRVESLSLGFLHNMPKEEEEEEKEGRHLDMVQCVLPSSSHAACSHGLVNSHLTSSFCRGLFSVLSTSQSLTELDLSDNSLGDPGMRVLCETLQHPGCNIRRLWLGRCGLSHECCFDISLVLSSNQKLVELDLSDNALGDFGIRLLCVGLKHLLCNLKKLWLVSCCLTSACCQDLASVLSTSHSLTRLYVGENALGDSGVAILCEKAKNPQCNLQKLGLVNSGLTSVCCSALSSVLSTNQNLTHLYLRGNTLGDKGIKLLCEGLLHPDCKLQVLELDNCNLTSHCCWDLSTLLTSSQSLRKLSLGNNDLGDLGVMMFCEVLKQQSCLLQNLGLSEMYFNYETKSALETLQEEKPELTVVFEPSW

| SMILES | IC50 (NLRP3 inflammasome) | IC50 (NF-κB pathway; [1]) | IC50 (NF-κB pathway; THP-1 macrophages) |
| --- | --- | --- | --- |
| Cc1cc(C)c(-n2cc3sc(N[C@@H]4CCN(CC(F)F)C4)nc3n2)c(O)c1 [Example 67, 2-(5-{[1-(2,2-difluoroethyl)pyrrolidin-3-yl]amino}-2H-pyrazolo[3,4-d][1,3]thiazol-2-yl)-3,5-dimethylphenol] | 0.95 µM | > 30 µM |  |
| Cc1cc(C)c(-n2cc3sc(NC4CCN(C(=O)CC(F)F)C4)nc3n2)c(O)c1 (stereo not drawn) [Example 68, 3,3-difluoro-1-(3-{[2-(2-hydroxy-4,6-dimethylphenyl)-2H-pyrazolo[3,4-d][1,3]thiazol-5-yl]amino}pyrrolidin-1-yl)propan-1-one] | 0.22 µM | > 10 µM |  |
| Cc1cc(C)c(-n2cc3sc(NC4CCN(C(=O)OCC(Cl)(Cl)Cl)C4)nc3n2)c(O)c1 (stereo not drawn) [Example 69, 2,2,2-trichloroethyl 3-{[2-(2-hydroxy-4,6-dimethylphenyl)-2H-pyrazolo[3,4-d][1,3]thiazol-5-yl]amino}pyrrolidine-1-carboxylate] | 0.25 µM | > 10 µM |  |
| Cc1cc(C)c(-n2nc3nc(N[C@@H]4C[C@@H](F)CN(C)C4)sc3c2C)c(O)c1 [Example 70, 2-(5-{[(3R,5R)-5-fluoro-1-methylpiperidin-3-yl]amino}-3-methyl-2H-pyrazolo[3,4-d][1,3]thiazol-2-yl)-3,5-dimethylphenol] | 0.059 µM | > 30 µM |  |
| CN1C[C@H](F)C[C@@H](Nc2nc3nn(-c4c(O)cc(Cl)cc4C(F)F)cc3s2)C1 [Example 75, 5-chloro-3-(difluoromethyl)-2-(5-{[(3R,5R)-5-fluoro-1-methylpiperidin-3-yl]amino}-2H-pyrazolo [3,4-d][1,3]thiazol-2-yl)phenol] | 0.016 µM | > 30 µM |  |
| CO[C@@H]1C[C@@H](Nc2nc3nn(-c4c(C)cc(C)cc4O)cc3s2)CN(C)C1 [Example 76] | 1.6 µM | > 30 µM |  |
| Cc1cc(C)c(-n2cc3sc(NC4CCN(C(=O)OCc5ccccc5)C4)nc3n2)c(O)c1 (stereo not drawn) [Example 77, benzyl 3-{[2-(2-hydroxy-4,6-dimethylphenyl)-2H-pyrazolo[3,4-d][1,3]thiazol-5-yl]amino}pyrrolidine-1-carboxylate] | 0.47 µM | > 10 µM |  |
| CCN1C[C@H](F)C[C@@H](Nc2nc3nn(-c4c(O)cc(Cl)cc4C(F)F)cc3s2)C1 [Example 78, 5-chloro-3-(difluoromethyl)-2-(5-{[(3R,5R)-1-ethyl-5-fluoropiperidin-3-yl]amino}-2H-pyrazolo[3,4-d][1,3]thiazol-2-yl)phenol] | 0.0043 µM | > 10 µM |  |
| Cc1cc(C)c(-n2cc3sc(N[C@@H]4CN(C)C[C@H]4F)nc3n2)c(O)c1 [Example 79, 2-(5-{[(3R,4R)-4-fluoro-1-methylpyrrolidin-3-yl]amino}-2H-pyrazolo[3,4-d][1,3]thiazol-2-yl)-3,5-dimethylphenol] | 1.1 µM | > 30 µM |  |
| Cc1cc(C)c(-n2cc3sc(N[C@H]4CN(C)C[C@@H]4F)nc3n2)c(O)c1 [Example 80, 2-(5-{[(3S,4S)-4-fluoro-1-methylpyrrolidin-3-yl]amino}-2H-pyrazolo[3,4-d][1,3]thiazol-2-yl)-3,5-dimethylphenol] | 0.037 µM | > 30 µM |  |
| Cc1cc(C)c(-n2cc3sc(NC4CCN(C)CC4)nc3n2)c(O)c1 [Example 81, 3,5-dimethyl-2-{5-[(1-methylpiperidin-4-yl)amino]-2H-pyrazolo[3,4-d][1,3]thiazol-2-yl}phenol] | 3.1 µM | > 30 µM |  |
| Cc1cc(Cl)cc(O)c1-n1cc2c(nc(N[C@@H]3C[C@@H](F)CN(C)C3)n2C)n1 [Example 82, 5-chloro-2-[5-{[(3R,5R)-5-fluoro-1-methylpiperidin-3-yl]amino}-4-methylimidazo[4,5-c]pyrazol-2(4H)-yl]-3-methylphenol] | 0.049 µM | > 30 µM |  |
| CCC(O)CNc1nc2nn(-c3c(C)cc(C)cc3O)cc2s1 (stereo not drawn) [Example 83, 2-{5-[(2-hydroxybutyl)amino]-2H-pyrazolo[3,4-d][1,3]thiazol-2-yl}-3,5-dimethylphenol] | 0.82 µM | > 30 µM |  |
| Cc1cc(C)c(-n2cc3sc(NCC4(O)CC4)nc3n2)c(O)c1 [Example 84, 2-(5-{[(1-hydroxycyclopropyl)methyl]amino}-2H-pyrazolo[3,4-d][1,3]thiazol-2-yl)-3,5-dimethylphenol] | 0.38 µM | > 30 µM |  |
| CC(=O)N1CCC(Nc2nc3nn(-c4c(C)cc(C)cc4O)cc3s2)C1 (stereo not drawn) [Example 85, 1-(3-{[2-(2-hydroxy-4,6-dimethylphenyl)-2H-pyrazolo[3,4-d][1,3]thiazol-5-yl]amino}pyrrolidin-1-yl)ethan-1-one] | 0.35 µM | > 30 µM |  |
| CNC(=O)N1CCC(Nc2nc3nn(-c4c(C)cc(C)cc4O)cc3s2)C1 (stereo not drawn) [Example 86, 3-{[2-(2-hydroxy-4,6-dimethylphenyl)-2H-pyrazolo[3,4-d][1,3]thiazol-5-yl]amino}-N-methylpyrrolidine-1-carboxamide] | 0.3 µM | > 30 µM |  |
| CCc1cc(C)cc(O)c1-n1cc2sc(NC[C@@H](C)O)nc2n1 [Example 87, 3-ethyl-2-(5-{[(2R)-2-hydroxypropyl]amino}-2H-pyrazolo[3,4-d][1,3]thiazol-2-yl)-5-methylphenol] | 0.096 µM | > 30 µM |  |
| COCC(=O)N1CCC(Nc2nc3nn(-c4c(C)cc(C)cc4O)cc3s2)C1 (stereo not drawn) [Example 89, 1-(3-{[2-(2-hydroxy-4,6-dimethylphenyl)-2H-pyrazolo[3,4-d][1,3]thiazol-5-yl]amino}pyrrolidin-1-yl)-2-methoxyethan-1-one] | 0.55 µM |  | > 30 µM |
| Cc1cc(C)c(-n2cc3sc(NC4CCN(C(=O)C(F)F)C4)nc3n2)c(O)c1 (stereo not drawn) [Example 90, 2,2-difluoro-1-(3-{[2-(2-hydroxy-4,6-dimethylphenyl)-2H-pyrazolo[3,4-d][1,3]thiazol-5-yl]amino}pyrrolidin-1-yl)ethan-1-one] | 0.54 µM | > 10 µM |  |
| COC(=O)N1CCC(Nc2nc3nn(-c4c(C)cc(C)cc4O)cc3s2)C1 (stereo not drawn) [Example 91, methyl 3-{[2-(2-hydroxy-4,6-dimethylphenyl)-2H-pyrazolo[3,4-d][1,3]thiazol-5-yl]amino}pyrrolidine-1-carboxylate] | 0.66 µM | > 10 µM |  |
| Cc1cc(C)c(-n2cc3sc(NC4CCN(C)C4)nc3n2)c(O)c1 (stereo not drawn) [Example 92, 3,5-dimethyl-2-{5-[(1-methylpyrrolidin-3-yl)amino]-2H-pyrazolo[3,4-d][1,3]thiazol-2-yl}phenol] | 0.27 µM | > 30 µM |  |
| Cc1cc(O)c(-n2cc3sc(NC[C@@H](C)O)nc3n2)c(C(C)C)c1 [Example 93, 2-(5-{[(2R)-2-hydroxypropyl]amino}-2H-pyrazolo[3,4-d][1,3]thiazol-2-yl)5-methyl-3-(propan-2-yl)phenol] | 0.28 µM | > 30 µM |  |
| Cc1cc(O)c(-n2cc3sc(N[C@@H]4C[C@@H](F)CN(C)C4)nc3n2)c(C(C)C)c1 [Example 94, 2-(5-{[(3R,5R)-5-fluoro-1-methylpiperidin-3-yl]amino}-2H-pyrazolo[3,4-d][1,3]thiazol-2-yl)-5-methyl-3-(propan-2-yl)phenol] | 0.031 µM | > 30 µM |  |
| Cc1cc(C)c(-n2cc3sc(NC4CC(=O)N(C)C4)nc3n2)c(O)c1 (stereo not drawn) [Example 95, 4-{[2-(2-hydroxy-4,6-dimethylphenyl)-2H-pyrazolo[3,4-d][1,3]thiazol-5-yl]amino}-1-methylpyrrolidin-2-one] | 1.3 µM | > 30 µM |  |
| Cc1cc(C)c(-n2cc3sc(NC4CCN(C(=O)C5CC5)C4)nc3n2)c(O)c1 (stereo not drawn) [Example 96, cyclopropyl(3-{[2-(2-hydroxy-4,6-dimethylphenyl)-2H-pyrazolo[3,4-d][1,3]thiazol-5-yl]amino}pyrrolidin-1-yl)methanone] | 0.4 µM | > 30 µM |  |
| Cc1cc(C)c(-n2cc3sc(NC4CCN(C(=O)CC5CC5)C4)nc3n2)c(O)c1 (stereo not drawn) [Example 97, 2-cyclopropyl-1-(3-{[2-(2-hydroxy-4,6-dimethylphenyl)-2H-pyrazolo[3,4-d][1,3]thiazol-5-yl]amino}pyrrolidin-1-yl)ethan-1-one] | 0.26 µM | > 10 µM |  |
| Cc1cc(C)c(-n2cc3sc(NC4CCN(C(=O)C5(F)CC5)C4)nc3n2)c(O)c1 (stereo not drawn) [Example 98, (1-fluorocyclopropyl)(3-{[2-(2-hydroxy-4,6-dimethylphenyl)-2H-pyrazolo[3,4-d][1,3]thiazol-5-yl]amino}pyrrolidin-1-yl)methanone] | 0.46 µM | > 30 µM |  |
| Cc1cc(C)c(-n2cc3sc(NC4CCN(C(=O)C5(C#N)CC5)C4)nc3n2)c(O)c1 (stereo not drawn) [Example 99, 1-(3-{[2-(2-hydroxy-4,6-dimethylphenyl)-2H-pyrazolo[3,4-d][1,3]thiazol-5-yl]amino}pyrrolidine-1-carbonyl)cyclopropane-1-carbonitrile] | 0.25 µM | > 30 µM |  |
| Cc1cc(C)c(-n2cc3sc(NC4CCN(S(C)(=O)=O)C4)nc3n2)c(O)c1 (stereo not drawn) [Example 100, 2-(5-{[1-(methanesulfonyl)pyrrolidin-3-yl]amino}-2H-pyrazolo[3,4-d][1,3]thiazol-2-yl)-3,5-dimethylphenol] | 0.62 µM | > 30 µM |  |
| Cc1cc(C)c(-n2cc3sc(NC4CCN(S(=O)(=O)C5CC5)C4)nc3n2)c(O)c1 (stereo not drawn) [Example 101, 2-(5-{[1-(cyclopropanesulfonyl)pyrrolidin-3-yl]amino}-2H-pyrazolo[3,4-d][1,3]thiazol-2-yl)-3,5-dimethylphenol] | 0.42 µM | > 30 µM |  |
